How the values were obtained:
Experiment in all cases: relative viability (nuclei count vs DMSO), 5 days (fraction); higher = more cells survive
[1] = compound: C1=CC=C(C(=C1)C2=CC=C(C=C2)C3=CSC4=C3C(=C(C(=O)N4)C#N)O)O + COc1cccc2cc(-c3nc([C@H]4CC[C@H](C(=O)O)CC4)n4ncnc(N)c34)[nH]c12 [OSI-027] (partner 0.5 µM)
How it was run: (§1)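 For relative viability, nuclei counts in treated wells were divided by those in vehicle wells. Lung cancer cell lines had been pin-tool dosed in 1536-well plates the day after seeding and cultured for 5 days, then fixed and stained in one step (final 0.05% Triton X-100, 1% formaldehyde, 1 ug/ml Hoechst) and imaged at 4×. Doses were one drug alone or a fixed anchor-drug dose plus five library-drug doses (not always all listed) in √10 steps, and values are duplicate-plate medians.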

[2] = compound: CC1=CN2C(=O)C=C(N=C2C(=C1)C(C)NC3=CC=CC=C3)N4CCOCC4 [TGX 221] + Cc1cc(Nc2cc(N3CCN(C)CC3)nc(Sc3ccc(NC(=O)C4CC4)cc3)n2)n[nH]1 [Tozasertib] (partner 0.1 µM)
How it was run: as §1

[3] = compound: O=C(CCCCCCNC(=O)c1cnc(N(c2ccccc2)c2ccccc2)nc1)NO [Ricolinostat] + C[C@@H](Oc1cc(-c2cnn(C3CCNCC3)c2)cnc1N)c1c(Cl)ccc(F)c1Cl [Crizotinib] (partner 1 µM)
How it was run: as §1

[4] = compound: O=C(CCCCCCNC(=O)c1cnc(N(c2ccccc2)c2ccccc2)nc1)NO [Ricolinostat] + O=C(CCCCCCC(=O)Nc1ccccc1)NO [Vorinostat] (partner 1 µM)
How it was run: as §1

| Cell Line | relative viability ([1]; first compound 0.253 µM) | relative viability ([1]; first compound 0.8 µM) | relative viability ([1]; first compound 2.53 µM) | relative viability ([1]; first compound 8 µM) | relative viability ([2]; first compound 0.253 µM) | relative viability ([2]; first compound 0.8 µM) | relative viability ([2]; first compound 2.53 µM) | relative viability ([2]; first compound 8 µM) | relative viability ([3]; first compound 0.08 µM) | relative viability ([3]; first compound 0.253 µM) | relative viability ([3]; first compound 0.8 µM) | relative viability ([3]; first compound 2.53 µM) | relative viability ([4]; first compound 0.08 µM) | relative viability ([4]; first compound 0.253 µM) | relative viability ([4]; first compound 0.8 µM) | relative viability ([4]; first compound 2.53 µM) | relative viability ([1]; first compound 0.08 µM) | relative viability ([2]; first compound 0.08 µM) |
| --- | --- | --- | --- | --- | --- | --- | --- | --- | --- | --- | --- | --- | --- | --- | --- | --- | --- | --- |
| HCC-44 | 0.588 | 0.518 | 0.558 | 0.523 | 0.947 | 1.03 | 0.92 | 0.695 | 0.836 | 0.753 | 0.774 | 0.592 | 1.16 | 0.99 | 1.06 | 1.06 | – | – |
| A-427 | 0.505 | 0.514 | 0.432 | 0.452 | 0.213 | 0.211 | 0.197 | 0.208 | 0.747 | 0.869 | 0.82 | 0.63 | 0.789 | 0.789 | 0.624 | 0.752 | 0.363 | 0.194 |
| NCI-H23 | 0.523 | 0.596 | 0.575 | 0.537 | 0.393 | 0.386 | 0.322 | 0.241 | 0.534 | 0.565 | 0.665 | 0.445 | 0.426 | 0.586 | 0.407 | 0.342 | 0.69 | 0.461 |
| NCI-H596 | 0.722 | 0.692 | 0.732 | 0.553 | 0.944 | 0.91 | 0.864 | 0.61 | 0.967 | 0.963 | 0.977 | 0.959 | 0.61 | 0.645 | 0.567 | 0.432 | 0.55 | 0.94 |
| NCI-H2087 | 0.772 | 0.568 | 0.57 | 0.358 | 0.269 | 0.231 | 0.217 | 0.233 | 0.891 | 0.791 | 0.709 | 0.688 | 0.398 | 0.42 | 0.728 | 0.193 | 0.551 | 0.254 |
| HCC-78 | 0.405 | 0.397 | 0.381 | 0.326 | 0.432 | 0.371 | 0.268 | 0.347 | – | 0.288 | 0.279 | 0.25 | – | 0.433 | 0.395 | 0.362 | 0.42 | 0.344 |
| NCI-H520 | 0.192 | 0.237 | 0.304 | 0.233 | 0.385 | 0.382 | 0.304 | 0.303 | – | 0.667 | 0.707 | 0.782 | – | 0.659 | 0.629 | 0.532 | 0.174 | 0.469 |
| NCI-H727 | 0.671 | 0.668 | 0.519 | 0.52 | 0.64 | 0.65 | 0.571 | 0.542 | 0.748 | 0.782 | 0.802 | 0.704 | 1.13 | 1.15 | 1.08 | 0.936 | 0.474 | 0.543 |
| NCI-H1734 | 0.608 | 0.618 | 0.595 | 0.432 | 0.247 | 0.263 | 0.263 | 0.271 | 0.561 | 0.792 | 0.706 | 0.581 | 0.725 | 0.891 | 0.702 | 0.67 | 0.642 | 0.247 |
| NCI-H1993 | 0.539 | 0.543 | 0.595 | 0.595 | 0.53 | 0.553 | 0.482 | 0.572 | 0.798 | 0.854 | 0.923 | 0.964 | 0.551 | 0.825 | 0.693 | – | 0.442 | 0.498 |
| HCC-827 | 0.862 | 0.699 | 0.881 | 0.739 | 0.436 | 0.424 | 0.401 | 0.349 | 0.827 | 0.956 | 0.841 | 0.846 | 0.768 | 0.86 | 0.574 | 0.915 | 0.691 | 0.414 |
| NCI-H1437 | 1.05 | 0.868 | 0.873 | 0.703 | 0.406 | 0.404 | 0.361 | 0.311 | 0.825 | 0.931 | 0.918 | 0.765 | 0.853 | 0.712 | 0.611 | 0.426 | 0.869 | 0.383 |
| EPLC-272H | 0.286 | 0.263 | 0.27 | 0.289 | 0.275 | 0.282 | 0.186 | 0.138 | – | 0.936 | 0.82 | 0.622 | 0.343 | 0.396 | 0.313 | 0.174 | 0.253 | 0.187 |
| NCI-H2126 | 0.718 | 0.654 | 0.737 | 0.708 | 0.886 | 0.797 | 0.768 | 0.756 | 0.862 | 0.945 | 1.06 | 1.01 | 0.456 | 0.796 | 0.684 | 0.485 | 0.639 | 0.826 |
| NCI-H1666 | 1.09 | 0.901 | 0.777 | 0.745 | 0.591 | 0.6 | 0.576 | 0.538 | 0.767 | 1.16 | 0.944 | 0.776 | 0.933 | 1.01 | 1.01 | 0.847 | 0.804 | 0.6 |
| RERF-LC-KJ | 0.755 | 0.561 | 0.551 | 0.457 | 0.555 | 0.496 | 0.488 | 0.382 | 0.784 | 0.754 | 0.819 | 0.65 | 0.583 | 0.657 | 0.639 | 0.434 | 0.562 | 0.465 |
| ABC-1 | 0.477 | 0.478 | 0.424 | 0.257 | 0.157 | 0.203 | 0.188 | 0.161 | 1.01 | 1.16 | 0.836 | 0.705 | 1.02 | 1.06 | 0.749 | 0.762 | 0.37 | 0.192 |
| ChaGo-K-1 | 0.569 | 0.485 | 0.571 | 0.528 | 0.202 | 0.216 | 0.219 | 0.191 | 1.13 | 1.08 | 1.05 | 0.997 | 0.717 | 0.762 | 0.73 | 0.523 | 0.475 | 0.22 |

From the supplement of paper PMC10307832
